# Measured values reported in paper PMC9386913 (Arthritis Research & Therapy, 2022).
# Experiment: Phase I multiple ascending-dose study: safety and tolerability (treatment-emergent adverse events)
# Format: in vivo, human (healthy volunteers)
# Procedure: A single-center, randomized, double-blind, placebo-controlled phase I study (NCT03554993) with a MAD component was performed in the UK between May 2018 and July 2019. Thirty-seven healthy volunteers of any race, ethnicity, or sex were enrolled. The inclusion criteria were 18 to 55 years of age inclusive, body mass index 18 to 33 kg/m^2, and physical examination by the investigator without clinically significant findings. Subjects were excluded if any clinically significant medical history, laboratory abnormality, psychiatric illness, or other condition existed that would place the subject at unacceptable risk by participating in the study. Pregnancy prevention guidance was provided as per Clinical Trial Facilitation Group recommendations. Subjects were randomly assigned to daily oral doses of CC-99677 or placebo. Subjects were dosed daily for 14 days. […] Both the investigator and subjects were blinded to the treatment arm. Safety assessments, including physical examinations, clinical laboratory tests, and collection of adverse events (AEs) were performed and graded using MedDRA version 22.0 and the US Food and Drug Administration (FDA) Toxicity Grading Scale for Healthy Adult and Adolescent Volunteers. The primary outcome of this trial was the safety and tolerability of multiple daily doses of CC-99677.
smiles,measurement,setting,value
CCOCc1cnc(Cl)nc1Oc1ccc2c(ccc3sc4c(c32)NC[C@@H](C)NC4=O)n1 [CC-99677],Subjects with ≥ 1 treatment-emergent AE,"10 mg daily, 14 days (n = 5)",3 (60.0) n (%)
same,TEAE: Abdominal pain,"10 mg daily, 14 days (n = 5)",0 n (%)
same,TEAE: Alanine aminotransferase increased,"10 mg daily, 14 days (n = 5)",0 n (%)
same,TEAE: Aspartate aminotransferase increased,"10 mg daily, 14 days (n = 5)",0 n (%)
same,TEAE: Back pain,"10 mg daily, 14 days (n = 5)",0 n (%)
same,TEAE: Blood creatine phosphokinase increased,"10 mg daily, 14 days (n = 5)",0 n (%)
same,TEAE: Catheter site related reaction,"10 mg daily, 14 days (n = 5)",0 n (%)
same,TEAE: Chapped lips,"10 mg daily, 14 days (n = 5)",0 n (%)
same,TEAE: Constipation,"10 mg daily, 14 days (n = 5)",0 n (%)
same,TEAE: Diarrhea,"10 mg daily, 14 days (n = 5)",0 n (%)
same,TEAE: Dizziness,"10 mg daily, 14 days (n = 5)",1 (20.0) n (%)
same,TEAE: Dysmenorrhea,"10 mg daily, 14 days (n = 5)",0 n (%)
same,TEAE: Dyspepsia,"10 mg daily, 14 days (n = 5)",1 (20.0) n (%)
same,TEAE: Ear and labyrinth disorders,"10 mg daily, 14 days (n = 5)",1 (20.0) n (%)
same,TEAE: Ear pain,"10 mg daily, 14 days (n = 5)",1 (20.0) n (%)
same,TEAE: Flushing,"10 mg daily, 14 days (n = 5)",0 n (%)
same,TEAE: Gastrointestinal disorders,"10 mg daily, 14 days (n = 5)",2 (40.0) n (%)
same,TEAE: General disorders and administration site conditions,"10 mg daily, 14 days (n = 5)",2 (40.0) n (%)
same,TEAE: Headache,"10 mg daily, 14 days (n = 5)",2 (40.0) n (%)
same,TEAE: Hot flush,"10 mg daily, 14 days (n = 5)",0 n (%)
same,TEAE: Infections and infestations,"10 mg daily, 14 days (n = 5)",1 (20.0) n (%)
same,"TEAE: Injury, poisoning, and procedural complications","10 mg daily, 14 days (n = 5)",1 (20.0) n (%)
same,TEAE: Insomnia,"10 mg daily, 14 days (n = 5)",1 (20.0) n (%)
same,TEAE: Investigations,"10 mg daily, 14 days (n = 5)",0 n (%)
same,TEAE: Muscle strain,"10 mg daily, 14 days (n = 5)",1 (20.0) n (%)
same,TEAE: Musculoskeletal and connective tissue disorders,"10 mg daily, 14 days (n = 5)",0 n (%)
same,TEAE: Musculoskeletal pain,"10 mg daily, 14 days (n = 5)",0 n (%)
same,TEAE: Myalgia,"10 mg daily, 14 days (n = 5)",0 n (%)
same,TEAE: Nasopharyngitis,"10 mg daily, 14 days (n = 5)",0 n (%)
same,TEAE: Nausea,"10 mg daily, 14 days (n = 5)",2 (40.0) n (%)
same,TEAE: Nervous system disorders,"10 mg daily, 14 days (n = 5)",2 (40.0) n (%)
same,TEAE: Oropharyngeal pain,"10 mg daily, 14 days (n = 5)",1 (20.0) n (%)
same,TEAE: Psychiatric disorders,"10 mg daily, 14 days (n = 5)",1 (20.0) n (%)
same,TEAE: Rash pustular,"10 mg daily, 14 days (n = 5)",1 (20.0) n (%)
same,TEAE: Rectal hemorrhage,"10 mg daily, 14 days (n = 5)",0 n (%)
same,TEAE: Reproductive system and breast disorders,"10 mg daily, 14 days (n = 5)",0 n (%)
same,"TEAE: Respiratory, thoracic, and mediastinal disorders","10 mg daily, 14 days (n = 5)",1 (20.0) n (%)
same,TEAE: Sensation of foreign body,"10 mg daily, 14 days (n = 5)",1 (20.0) n (%)
same,TEAE: Vascular disorders,"10 mg daily, 14 days (n = 5)",0 n (%)
same,TEAE: Vessel puncture site pain,"10 mg daily, 14 days (n = 5)",1 (20.0) n (%)
same,TEAE: Vessel puncture site reaction,"10 mg daily, 14 days (n = 5)",0 n (%)
same,Subjects with ≥ 1 treatment-emergent AE,"30 mg daily, 14 days (n = 6)",4 (66.7) n (%)
same,TEAE: Abdominal pain,"30 mg daily, 14 days (n = 6)",0 n (%)
same,TEAE: Alanine aminotransferase increased,"30 mg daily, 14 days (n = 6)",0 n (%)
same,TEAE: Aspartate aminotransferase increased,"30 mg daily, 14 days (n = 6)",0 n (%)
same,TEAE: Back pain,"30 mg daily, 14 days (n = 6)",0 n (%)
same,TEAE: Blood creatine phosphokinase increased,"30 mg daily, 14 days (n = 6)",0 n (%)
same,TEAE: Catheter site related reaction,"30 mg daily, 14 days (n = 6)",0 n (%)
same,TEAE: Chapped lips,"30 mg daily, 14 days (n = 6)",1 (16.7) n (%)
same,TEAE: Constipation,"30 mg daily, 14 days (n = 6)",0 n (%)
same,TEAE: Diarrhea,"30 mg daily, 14 days (n = 6)",0 n (%)
same,TEAE: Dizziness,"30 mg daily, 14 days (n = 6)",1 (16.7) n (%)
same,TEAE: Dysmenorrhea,"30 mg daily, 14 days (n = 6)",0 n (%)
same,TEAE: Dyspepsia,"30 mg daily, 14 days (n = 6)",0 n (%)
same,TEAE: Ear and labyrinth disorders,"30 mg daily, 14 days (n = 6)",0 n (%)
same,TEAE: Ear pain,"30 mg daily, 14 days (n = 6)",0 n (%)
same,TEAE: Flushing,"30 mg daily, 14 days (n = 6)",0 n (%)
same,TEAE: Gastrointestinal disorders,"30 mg daily, 14 days (n = 6)",2 (33.3) n (%)
same,TEAE: General disorders and administration site conditions,"30 mg daily, 14 days (n = 6)",0 n (%)
same,TEAE: Headache,"30 mg daily, 14 days (n = 6)",0 n (%)
same,TEAE: Hot flush,"30 mg daily, 14 days (n = 6)",0 n (%)
same,TEAE: Infections and infestations,"30 mg daily, 14 days (n = 6)",1 (16.7) n (%)
same,"TEAE: Injury, poisoning, and procedural complications","30 mg daily, 14 days (n = 6)",0 n (%)
same,TEAE: Insomnia,"30 mg daily, 14 days (n = 6)",0 n (%)
same,TEAE: Investigations,"30 mg daily, 14 days (n = 6)",0 n (%)
same,TEAE: Muscle strain,"30 mg daily, 14 days (n = 6)",0 n (%)
same,TEAE: Musculoskeletal and connective tissue disorders,"30 mg daily, 14 days (n = 6)",2 (33.3) n (%)
same,TEAE: Musculoskeletal pain,"30 mg daily, 14 days (n = 6)",0 n (%)
same,TEAE: Myalgia,"30 mg daily, 14 days (n = 6)",2 (33.3) n (%)
same,TEAE: Nasopharyngitis,"30 mg daily, 14 days (n = 6)",1 (16.7) n (%)
same,TEAE: Nausea,"30 mg daily, 14 days (n = 6)",0 n (%)
same,TEAE: Nervous system disorders,"30 mg daily, 14 days (n = 6)",1 (16.7) n (%)
same,TEAE: Oropharyngeal pain,"30 mg daily, 14 days (n = 6)",0 n (%)
same,TEAE: Psychiatric disorders,"30 mg daily, 14 days (n = 6)",0 n (%)
same,TEAE: Rash pustular,"30 mg daily, 14 days (n = 6)",0 n (%)
same,TEAE: Rectal hemorrhage,"30 mg daily, 14 days (n = 6)",1 (16.7) n (%)
same,TEAE: Reproductive system and breast disorders,"30 mg daily, 14 days (n = 6)",0 n (%)
same,"TEAE: Respiratory, thoracic, and mediastinal disorders","30 mg daily, 14 days (n = 6)",0 n (%)
same,TEAE: Sensation of foreign body,"30 mg daily, 14 days (n = 6)",0 n (%)
same,TEAE: Vascular disorders,"30 mg daily, 14 days (n = 6)",0 n (%)
same,TEAE: Vessel puncture site pain,"30 mg daily, 14 days (n = 6)",0 n (%)
same,TEAE: Vessel puncture site reaction,"30 mg daily, 14 days (n = 6)",0 n (%)
same,Subjects with ≥ 1 treatment-emergent AE,"60 mg daily, 14 days (n = 6)",1 (16.7) n (%)
same,TEAE: Abdominal pain,"60 mg daily, 14 days (n = 6)",0 n (%)
same,TEAE: Alanine aminotransferase increased,"60 mg daily, 14 days (n = 6)",0 n (%)
same,TEAE: Aspartate aminotransferase increased,"60 mg daily, 14 days (n = 6)",0 n (%)
same,TEAE: Back pain,"60 mg daily, 14 days (n = 6)",0 n (%)
same,TEAE: Blood creatine phosphokinase increased,"60 mg daily, 14 days (n = 6)",0 n (%)
same,TEAE: Catheter site related reaction,"60 mg daily, 14 days (n = 6)",0 n (%)
same,TEAE: Chapped lips,"60 mg daily, 14 days (n = 6)",0 n (%)
same,TEAE: Constipation,"60 mg daily, 14 days (n = 6)",0 n (%)
same,TEAE: Diarrhea,"60 mg daily, 14 days (n = 6)",0 n (%)
same,TEAE: Dizziness,"60 mg daily, 14 days (n = 6)",0 n (%)
same,TEAE: Dysmenorrhea,"60 mg daily, 14 days (n = 6)",0 n (%)
same,TEAE: Dyspepsia,"60 mg daily, 14 days (n = 6)",0 n (%)
same,TEAE: Ear and labyrinth disorders,"60 mg daily, 14 days (n = 6)",0 n (%)
same,TEAE: Ear pain,"60 mg daily, 14 days (n = 6)",0 n (%)
same,TEAE: Flushing,"60 mg daily, 14 days (n = 6)",0 n (%)
same,TEAE: Gastrointestinal disorders,"60 mg daily, 14 days (n = 6)",0 n (%)
same,TEAE: General disorders and administration site conditions,"60 mg daily, 14 days (n = 6)",0 n (%)
same,TEAE: Headache,"60 mg daily, 14 days (n = 6)",1 (16.7) n (%)
same,TEAE: Hot flush,"60 mg daily, 14 days (n = 6)",0 n (%)
same,TEAE: Infections and infestations,"60 mg daily, 14 days (n = 6)",0 n (%)
same,"TEAE: Injury, poisoning, and procedural complications","60 mg daily, 14 days (n = 6)",0 n (%)
same,TEAE: Insomnia,"60 mg daily, 14 days (n = 6)",0 n (%)
